Source: US11274268B2, “Detergent compositions for removing heavy metals and formaldehyde” (FNG RESEARCH CO., LTD., priority 2017, dated 2022)

Experiments:
human skin = assay: Skin irritation test of active ingredient (patch method, CTFA guidelines); type: in vivo; settings: for Test result (number of subject) (+) / Test result (number of subject) (−) / Test result (number of subject) (++) / Test result (number of subject) (±): 20 subjects, 24 hours patch; for Test result (number of subject) (+): apparent reddening; for Test result (number of subject) (−): no erythema or symptoms; for Test result (number of subject) (++): reddened and swollen; for Test result (number of subject) (±): slightly reddish; for Degree of irritation: Equation 1
Description: A total of 20 people (10 men and 10 women in their 20s and 30s) were tested for skin irritation using the patch method according to the guidelines of CTFA (The Cosmetic, Toiletry & Fragrance Association, Inc. Washington, D.C.).
A filter paper disk was placed in an 8 mm diameter, 10 panels of pin chamber.
After 24 hours, the pin chamber was removed, and skin conditions were visually observed. The degree and grade for skin irritation were calculated according to the following Equation 1, and the results are shown in Table 3 below.
[Criteria for Skin Irritation]
(−): No erythema or particularly no symptoms; (±): slightly reddish than the periphery; (+): Apparent reddening than periphery; (++): More reddened and swollen than periphery.
[Grade for Skin Irritation]
Degree of irritation 0-0.1: Grade I (unstimulated);
Degree of irritation 0.11-0.3: Grade II (weakly stimulated);
Degree of irritation 0.31-0.5: Grade III (moderately stimulated);
Degree of irritation 0.51 or more: Grade IV (strongly stimulated)

[1] = Formaldehyde removing ability test (GC); settings: 2.0% formaldehyde solution, 3 molar equivalents, room temperature

O=C(O)c1ccc(N2CCN(c3ccc(C(=O)O)o3)CCN(c3ccc(C(=O)O)o3)CCN(c3ccc(C(=O)O)o3)CC2)o1 [Embodiment 8, 5,5′,5″,5′″-(1,4,7,10-tetraazacyclododecane-1,4,7,10-tetrayl)tetrakis(furan-2-carboxylic Acid)]
Grade (human skin; content 0.1%): I (Degree of irritation 0-0.1: Grade I (unstimulated))
Test result (number of subject) (+) (human skin; content 0.1%): 0
Test result (number of subject) (−) (human skin; content 0.1%): 20
Test result (number of subject) (++) (human skin; content 0.1%): 0
Test result (number of subject) (±) (human skin; content 0.1%): 0
Degree of irritation (human skin; content 0.1%): 0
Grade (human skin; content 0.5%): I (Degree of irritation 0-0.1: Grade I (unstimulated))
Test result (number of subject) (+) (human skin; content 0.5%): 0
Test result (number of subject) (−) (human skin; content 0.5%): 20
Test result (number of subject) (++) (human skin; content 0.5%): 0
Test result (number of subject) (±) (human skin; content 0.5%): 0
Degree of irritation (human skin; content 0.5%): 0
Grade (human skin; content 1.0%): I (Degree of irritation 0-0.1: Grade I (unstimulated))
Test result (number of subject) (+) (human skin; content 1.0%): 0
Test result (number of subject) (−) (human skin; content 1.0%): 18
Test result (number of subject) (++) (human skin; content 1.0%): 0
Test result (number of subject) (±) (human skin; content 1.0%): 2
Degree of irritation (human skin; content 1.0%): 0.10
Area (formaldehyde, GC) ([1]; 30 min): 0.168 mAU * min
Area (formaldehyde, GC) ([1]; 180 min): 0 mAU * min
Area (formaldehyde, GC) ([1]; Initial): 0.305 mAU * min

O=C(O)CN1CCCN(CC(=O)O)CCN(CC(=O)O)CCCN(CC(=O)O)CC1 [Embodiment 9, 2,2′,2″,2′″-(1,4,8,11-tetraazacyclotetradecane-1,4,8,11-tetrayl)tetraacetic Acid]
Grade (human skin; content 0.1%): I (Degree of irritation 0-0.1: Grade I (unstimulated))
Test result (number of subject) (+) (human skin; content 0.1%): 0
Test result (number of subject) (−) (human skin; content 0.1%): 20
Test result (number of subject) (++) (human skin; content 0.1%): 0
Test result (number of subject) (±) (human skin; content 0.1%): 0
Degree of irritation (human skin; content 0.1%): 0
Grade (human skin; content 0.5%): I (Degree of irritation 0-0.1: Grade I (unstimulated))
Test result (number of subject) (+) (human skin; content 0.5%): 0
Test result (number of subject) (−) (human skin; content 0.5%): 20
Test result (number of subject) (++) (human skin; content 0.5%): 0
Test result (number of subject) (±) (human skin; content 0.5%): 0
Degree of irritation (human skin; content 0.5%): 0
Grade (human skin; content 1.0%): I (Degree of irritation 0-0.1: Grade I (unstimulated))
Test result (number of subject) (+) (human skin; content 1.0%): 0
Test result (number of subject) (−) (human skin; content 1.0%): 18
Test result (number of subject) (++) (human skin; content 1.0%): 0
Test result (number of subject) (±) (human skin; content 1.0%): 2
Degree of irritation (human skin; content 1.0%): 0.10
Area (formaldehyde, GC) ([1]; 30 min): 0.182 mAU * min
Area (formaldehyde, GC) ([1]; 180 min): 0 mAU * min
Area (formaldehyde, GC) ([1]; Initial): 0.305 mAU * min

O=C(O)c1ccc(N2CCCN(c3ccc(C(=O)O)cc3)CCN(c3ccc(C(=O)O)cc3)CCCN(c3ccc(C(=O)O)cc3)CC2)cc1 [Embodiment 10, 4,4′,4″,4′-(1,4,8,11-tetraazacyclotetradecane-1,4,8,11-tetrayl)tetrabenzoic Acid]
Grade (human skin; content 0.1%): I (Degree of irritation 0-0.1: Grade I (unstimulated))
Test result (number of subject) (+) (human skin; content 0.1%): 0
Test result (number of subject) (−) (human skin; content 0.1%): 20
Test result (number of subject) (++) (human skin; content 0.1%): 0
Test result (number of subject) (±) (human skin; content 0.1%): 0
Degree of irritation (human skin; content 0.1%): 0
Grade (human skin; content 0.5%): I (Degree of irritation 0-0.1: Grade I (unstimulated))
Test result (number of subject) (+) (human skin; content 0.5%): 0
Test result (number of subject) (−) (human skin; content 0.5%): 20
Test result (number of subject) (++) (human skin; content 0.5%): 0
Test result (number of subject) (±) (human skin; content 0.5%): 0
Degree of irritation (human skin; content 0.5%): 0
Grade (human skin; content 1.0%): I (Degree of irritation 0-0.1: Grade I (unstimulated))
Test result (number of subject) (+) (human skin; content 1.0%): 0
Test result (number of subject) (−) (human skin; content 1.0%): 19
Test result (number of subject) (++) (human skin; content 1.0%): 0
Test result (number of subject) (±) (human skin; content 1.0%): 1
Degree of irritation (human skin; content 1.0%): 0.05
Area (formaldehyde, GC) ([1]; 30 min): 0.171 mAU * min
Area (formaldehyde, GC) ([1]; 180 min): 0 mAU * min
Area (formaldehyde, GC) ([1]; Initial): 0.305 mAU * min

O=C(O)c1cncc(N2CCCN(c3cncc(C(=O)O)c3)CCN(c3cncc(C(=O)O)c3)CCCN(c3cncc(C(=O)O)c3)CC2)c1 [Embodiment 11, 5,5′,5″,5′″-(1,4,8,11-tetraazacyclotetradecane-1,4,8,11-tetrayl)tetranicotinic Acid]
Grade (human skin; content 0.1%): I (Degree of irritation 0-0.1: Grade I (unstimulated))
Test result (number of subject) (+) (human skin; content 0.1%): 0
Test result (number of subject) (−) (human skin; content 0.1%): 20
Test result (number of subject) (++) (human skin; content 0.1%): 0
Test result (number of subject) (±) (human skin; content 0.1%): 0
Degree of irritation (human skin; content 0.1%): 0
Grade (human skin; content 0.5%): I (Degree of irritation 0-0.1: Grade I (unstimulated))
Test result (number of subject) (+) (human skin; content 0.5%): 0
Test result (number of subject) (−) (human skin; content 0.5%): 20
Test result (number of subject) (++) (human skin; content 0.5%): 0
Test result (number of subject) (±) (human skin; content 0.5%): 0
Degree of irritation (human skin; content 0.5%): 0
Grade (human skin; content 1.0%): I (Degree of irritation 0-0.1: Grade I (unstimulated))
Test result (number of subject) (+) (human skin; content 1.0%): 0
Test result (number of subject) (−) (human skin; content 1.0%): 18
Test result (number of subject) (++) (human skin; content 1.0%): 0
Test result (number of subject) (±) (human skin; content 1.0%): 2
Degree of irritation (human skin; content 1.0%): 0.10
Area (formaldehyde, GC) ([1]; 30 min): 0.174 mAU * min
Area (formaldehyde, GC) ([1]; 180 min): 0 mAU * min
Area (formaldehyde, GC) ([1]; Initial): 0.305 mAU * min

O=C(O)c1ccc(N2CCCN(c3ccc(C(=O)O)o3)CCN(c3ccc(C(=O)O)o3)CCCN(c3ccc(C(=O)O)o3)CC2)o1 [Embodiment 12, 5,5′,5″,5′″-(1,4,8,11-tetraazacyclotetradecane-1,4,8,1-tetrayl)tetrakis(furan-2-carboxylic Acid)]
Grade (human skin; content 0.1%): I (Degree of irritation 0-0.1: Grade I (unstimulated))
Test result (number of subject) (+) (human skin; content 0.1%): 0
Test result (number of subject) (−) (human skin; content 0.1%): 20
Test result (number of subject) (++) (human skin; content 0.1%): 0
Test result (number of subject) (±) (human skin; content 0.1%): 0
Degree of irritation (human skin; content 0.1%): 0
Grade (human skin; content 0.5%): I (Degree of irritation 0-0.1: Grade I (unstimulated))
Test result (number of subject) (+) (human skin; content 0.5%): 0
Test result (number of subject) (−) (human skin; content 0.5%): 20
Test result (number of subject) (++) (human skin; content 0.5%): 0
Test result (number of subject) (±) (human skin; content 0.5%): 0
Degree of irritation (human skin; content 0.5%): 0
Grade (human skin; content 1.0%): I (Degree of irritation 0-0.1: Grade I (unstimulated))
Test result (number of subject) (+) (human skin; content 1.0%): 0
Test result (number of subject) (−) (human skin; content 1.0%): 19
Test result (number of subject) (++) (human skin; content 1.0%): 0
Test result (number of subject) (±) (human skin; content 1.0%): 1
Degree of irritation (human skin; content 1.0%): 0.05
Area (formaldehyde, GC) ([1]; 30 min): 0.170 mAU * min
Area (formaldehyde, GC) ([1]; 180 min): 0 mAU * min
Area (formaldehyde, GC) ([1]; Initial): 0.305 mAU * min

NCCNCCNCCN [Trientine, Triethylenetetramine, reference compound]
Grade (human skin; content 0.1%): I (Degree of irritation 0-0.1: Grade I (unstimulated))
Test result (number of subject) (+) (human skin; content 0.1%): 0
Test result (number of subject) (−) (human skin; content 0.1%): 20
Test result (number of subject) (++) (human skin; content 0.1%): 0
Test result (number of subject) (±) (human skin; content 0.1%): 0
Degree of irritation (human skin; content 0.1%): 0
Grade (human skin; content 0.5%): I (Degree of irritation 0-0.1: Grade I (unstimulated))
Test result (number of subject) (+) (human skin; content 0.5%): 0
Test result (number of subject) (−) (human skin; content 0.5%): 19
Test result (number of subject) (++) (human skin; content 0.5%): 0
Test result (number of subject) (±) (human skin; content 0.5%): 1
Degree of irritation (human skin; content 0.5%): 0.05
Grade (human skin; content 1.0%): II (Degree of irritation 0.11-0.3: Grade II (weakly stimulated))
Test result (number of subject) (+) (human skin; content 1.0%): 0
Test result (number of subject) (−) (human skin; content 1.0%): 17
Test result (number of subject) (++) (human skin; content 1.0%): 0
Test result (number of subject) (±) (human skin; content 1.0%): 3
Degree of irritation (human skin; content 1.0%): 0.15
Area (formaldehyde, GC) ([1]; 30 min): 0.168 mAU * min
Area (formaldehyde, GC) ([1]; 180 min): 0 mAU * min
Area (formaldehyde, GC) ([1]; Initial): 0.305 mAU * min
